# Test results reported in patent publication US6855353B2, “Method for producing antioxidant and prevention of cancer” (priority 2002, dated 2005).
# Columns and labels:
# [1] = system: NADPH-cytochrome Creductase; test: Effect of RES on hepatic microsomal monooxygenases: NADPH-cytochrome c reductase; type: in vivo; conditions: rat liver microsomes
# Experimental: (§1) In the present study, the effect of RES on the activities of hepatic microsomal monooxygenases was examined.
# (§2) Microsomal preparations—the microsomes used were prepared from rat's liver. The liver was thoroughly perfused in situ with more than 200 ml of 0.9% NaCl solution. The liver was excised, and homogenized with 4 volumes of isotonic (1.15%) KCl solution in a Potter glass homogenizer. The homogenate was centrifuged at 12,000×g for 25 minutes in a refrigerated centrifuge, and the precipitate was discarded. The microsomes were sedimented by centrifugation at 78,000×g for 90 minutes in a Hitachi model 40P preparative ultracentrifuge. The firmly packed pellet of microsomes was resuspended in isotonic KCl solution with the Potter homogenizer and again centrifuged as above. The washed microsomes were finally suspended in isotonic KCl, usually at a concentration of 10 mg of protein per ml. The resultant microsomal suspensions were stored at 4° C. and used within 2 to 3 days. In these preparations isotonic KCl was employed, instead of the more usual 0.25 M sucrose, so as to minimize the adsorption of hemoglobin on microsomes.
# (§3) Cytochrome P-450, NADPH-cytochrome creductase, aminoyrine demethylase and benzpyrene hydroxylase determined as previously described. Other methods are as same as above section.
# [2] = system: c-myb RNA; test: Inhibition of oncogene expression in ML-1 cells (northern blot): c-myb; type: cell-based, Human
# Experimental: (§4) Human myeloblastic leukemic cell (ML-1) had been described previously. Cells were maintained in suspension culture in RPMI 1640 medium supplemented with 7.5% heat-inactivated FBS. Cells growth and viability were assayed by hemocytometer using trypan blue dye exclusion.
# (§5) RNA was isolated by the CsCl gradient modification. RNA pellets were washed twice by reprecipitation in ethanol and quantitated by absorbency at […]. RNA analyzed by electrophoresis of 15 μg of RNA through 1.2% agarose formaldehyde gels followed by northern blot transfer to nitrocellulose.
# (§6) Single-standard uniformly labeled DNA probes were prepared. Probe of c-myc was a 1.7 Kb cla-Eco RI restriction fragment containing the 3′exon region of human c-myc and probe of c-myb was 1.0 Kb myb-specific Bam HI fragment. Probes for n-ras contained DNA fragments using a modification of the PCR technique. Probes for myb, myc and n-ras were isolated by electrolution. The isolated fragments were labeled to high specific activity with [α^32P]-dCTP (3000 ci/mmol). Prehybridization of the filter was performed. The hybridization mixer contained 50,000 cpm of probe. The probes were hybridized at 58° C. in 15 mM NaCl, […] sodium citrate for 3 hours. After hybridization, they were exposed to XAR-5 film. Oncogene expression was quantitated by densitometer scanning of the autoradiography.
# [3] = system: 17p in gastric cancer cells; test: Effect of RES on 17p allelic loss (PCR-SSCP); type: cell-based
# Experimental: (§7) The gastric cancer cells and normal cells were cultured in RPMI 1640 medium supplement with 10% fetal bovine serum. All the exons of the p^53 gene were amplified by the polymease chain reaction (PCR) using specific oligonucleotide primers. The PCR products were subjected to single-strand conformation polymorphism (SSCP) analysis.
# [4] = system: bovine aortic smooth muscle cell modified LDL; test: Effect of RES on lower density lipoprotein oxidation (MDA); type: cell-based; conditions: LDL + 100 μg RES/ml, 37° C., 24 h; x ± s
# [5] = system: GSH-Px; test: Effect of RES on super-oxidation during reperfusion of ischemia heart: GSH-Px; parameters: species or system rats
# Experimental: (§8) H2O2 in the body is cleared by catalase and glutathione peroxidase (GSH-Px) catalysis. In myocardium, catalase activity of GSH-Px was lower.
# (§9) In the present study we examined the effect of RES on super-oxidation during reperfusion of ischemia heart.
# (§10) Male rats (280 to 320 g body weight) of Spague-Dawley strain maintained on a standard diet were used in these experiments. The rats were lightly anesthetized with diethyl ether, the left femoral vein was exposed and heparin (200 IU) was administered intravenously. 1 minute after administration of heparin the heart was excised and placed in ice cool perfusion medium until contraction had ceased. The heart was then mounted on the perfusion apparatus.
# (§11) Langendorff perfusion for an initial 10 min. period, the perfusion was continued as a working preparation for an additional 30 min. The hearts were all electrically paced at between 265 and 275 beats/min during working perfusion.
# (§12) The perfusate was Krebs-Henseleit bicarbonate buffer gassed with 95% oxygen and 5% carbon dioxide. This perfusate contained 11 mM D-glucose during the Langendorff perfusion.
# (§13) Aortic pressure, heart rates, coronary flows and aortic outputs were monitored during perfusion. […] The perfusate of control group contained buffer only. At the end the frozen hears were store in liquid nitrogen until assayed for metabolic intermediates. […]
# [6] = system: Cytochrome P-450; test: Effect of RES on hepatic microsomal monooxygenases: cytochrome P-450; type: in vivo; conditions: rat liver microsomes
# Experimental: as §1, §2, §3
# [7] = system: mouse epidermis; test: Rate of [3H] thymidine incorporation in normal and TPA-stimulated mouse epidermis; type: in vivo
# Experimental: It is known that tetradecanoyphorbol-13-acetate (TPA) is strong tumor promoter and TPA can remarkable increase [^3H] thymidine incorporation in mouse epidermis and then to induce Epidermis cancer.
# Mice were treated with TPA and the rate of [^3H] thymidine incorporation was determined 20 hours later. Male mice (7-9 weeks old) used for experiments. Only mice showing no hair regrowth following shaving were used. Animals were injected intraperitoneally (i.p.) with TPA or […]. After 20 hours, mice were injected i.p. with 60 μCi of [^3H] thymidine (2 Ci/mmol) 20 minutes before sacrifice. Epidermal scrapings were prepared. Homogenized in distilled water at 4° C., and the macromolecules precipitated with 0.4 N trichloracetic acid (TCA). Following 6 washes with 0.2 N TCA at 4° C. and 2 washes with absolute ethanol at room temperature, the nucleic acids were hydrolyzed with 0.5 N TCA at 90° C. for 5 minutes. The hydrolysates (0.2 ml aliquots) were counted in a scintillation counter and assayed for DNA. Each value is the mean±range for three separately treated mice. Each counted aliquot (0.2 ml) contained approximately 10 μg of DNA.
# [8] = system: c-myc RNA; test: Inhibition of oncogene expression in ML-1 cells (northern blot): c-myc; type: cell-based, Human
# Experimental: as §4, §5, §6
# [9] = system: NNK-induced lung tumorigenesis; test: NNK-induced lung tumorigenesis; type: in vivo, mice; conditions: RES by injection 20 mg/kg daily; 10 μmol NNK i.p.; pulmonary adenomas counted after sixteen weeks
# Experimental: The capacity of tobacco-specific nitrosamine 4-(methylnitrosamino)-1-(3-pyridyl)-1-butanone (NNK) to induce tumor incidence was recognized several years ago. Every group had 20 mice. For treatment group, each mouse was gave RES by injection at dose of 20 mg/kg daily. For control group, each mouse was gave same volume of physiological saline. Three days later, mice were gave 10 μmol NNK (in 0.1 ml saline) by i.p. injection. Sixteen weeks after these treatments the mice were killed and pulmonary adenomas were counted. The statistical significance of bioassay data was determined by student's test.
# [10] = system: Benzpyrene hydroxylase; test: Effect of RES on hepatic microsomal monooxygenases: benzpyrene hydroxylase; type: in vivo; conditions: rat liver microsomes
# Experimental: as §1, §2, §3
# [11] = system: GSH-Px; test: Effect of RES on GSH-Px activity in tissues after 30 days feeding; type: in vivo; conditions: 0.2% RES solution as drinking water up to 30 days
# Description: Glutathion peroxidase (GSH-Px) is an important enzyme, which has a high activity in cancer tissues.
# Twenty animals were divided into two groups of ten each and fed with either normal drinking water (control group) or 0.2% of RES solution (experimental group); this defined feeding regimen was continued up to 30 days. At the end of the feeding regimen, the animals were sacrificed, and whole skin, small bowel, liver, and lung were removed and immediately placed in ice-cold 0.1 M phosphate buffer, pH 7.4. Tissues were cleaned properly, minced and homogenized in the same buffer, and a 100,000×g supernatant fraction was prepared as described earlier. GSH-Px and GSH-r activities were measured.
# [12] = system: n-ras RNA; test: Inhibition of oncogene expression in ML-1 cells (northern blot): n-ras; type: cell-based, Human
# Experimental: as §4, §5, §6
# [13] = system: SOD; test: Effect of RES on super-oxidation during reperfusion of ischemia heart: SOD; parameters: species or system rats
# Experimental: as §8, §9, §10, §11, §12, §13
# [14] = system: Lipoperoxides; test: Effect of RES on peroxidation (hepatic lipoperoxide content, CCl4-induced hepatic damage); type: in vivo
# Experimental: The experiments were performed as previously described. Hepatic lipoperoxide content was determined as described by Uchiyama.
# In the present study, the effect of RES on lipoperoxides was examined.
# It is known that the pathogenesis of CCl4—induced hepatic damage involved reactive oxidant species increasing from the metabolism. The liver injure caused by CCl4 is due to the formation of a reactive toxic metabolite by the hepatic cytochrome P-450 system.
# [15] = system: p53 gene in gastric cancer cells; test: Effect of RES on p53 allelic loss (PCR-SSCP); type: cell-based
# Experimental: as §7
# [16] = system: Aminopyrine demethylase; test: Effect of RES on hepatic microsomal monooxygenases: aminopyrine demethylase; type: in vivo; conditions: rat liver microsomes
# Experimental: as §1, §2, §3
# [17] = gastric cancer cells treated by RES
# [18] = gastric cancer cells treated by RES vs no drug
# [19] = ischemia heart, perfusate with 0.05 mg of RES/ml
# [20] = pre-perfusion with 4×10^−6 g of RES/ml
structure (smiles),measurement,setting,value
"Oc1ccc(/C=C/c2cc(O)cc(O)c2)cc1 [RES, resveratol]",NADPH-cytochrome Creductase,[1],198.5 ± 20 nmol/mg protein
same,Inhibition (%) c-myb RNA,[2],25.6 ± 3.5%
same,Frequency of 17p allelic loss,[3]; [17],18.8%
same,Inhibition T/C (17p allelic loss),[3]; [18],49%
same,MDA,[4],2.75 ± 0.29 nmol/mg protein
same,GSH-Px,[5]; [19],18.9 ± 2.0 μ/g.w
same,GSH-Px activity versus control group,[5]; [20],significantly higher
same,Cytochrome P-450,[6],2.65 ± 0.35 nmol/mg protein
same,"Specific activity, [3H] thymidine incorporation, TPA","[7]; TPA-stimulated mouse epidermis, 20 hours after TPA",33.0 ± 4.5 cpm/μg DNA
same,"Specific activity, [3H] thymidine incorporation, Normal",[7]; normal mouse epidermis,32.2 ± 4.0 cpm/μg DNA
same,Inhibition (%) c-myc RNA,[8],30.1 ± 4.2%
same,Tumor incidence,[9],28.5 ± 3.0%
same,Benzpyrene hydroxylase,[10],48.9 ± 5.8 nmol/mg protein
same,"GSH-Px activity, Liver",[11]; liver,34 ± 50 n mol NADPH oxidized/mg protein/min
same,"GSH-Px activity, Lung",[11]; lung,22 ± 3.5 n mol NADPH oxidized/mg protein/min
same,"GSH-Px activity, Skin",[11]; skin,260 ± 30 n mol NADPH oxidized/mg protein/min
same,Inhibition (%) n-ras RNA,[12],35.7 ± 3.8%
same,SOD activity,[13]; [19],10.5 ± 1.2 μg/protein
same,SOD activity versus control group,[13]; [20],significantly higher
same,"Lipoperoxides T/C, 1h",[14]; 1h,87%
same,"Lipoperoxides, 1 h","[14]; 1 h, CCl4-induced hepatic damage",0.65 ± 0.07 mmol MDA/g liver protein
same,"Lipoperoxides T/C, 3h",[14]; 3h,72%
same,"Lipoperoxides, 3 h","[14]; 3 h, CCl4-induced hepatic damage",0.62 ± 0.069 mmol MDA/g liver protein
same,"Lipoperoxides T/C, 6h",[14]; 6h,55%
same,"Lipoperoxides, 6 h","[14]; 6 h, CCl4-induced hepatic damage",0.60 ± 0.70 mmol MDA/g liver protein
same,"Lipoperoxides T/C, 12h",[14]; 12h,40%
same,"Lipoperoxides, 12 h","[14]; 12 h, CCl4-induced hepatic damage",0.59 ± 0.60 mmol MDA/g liver protein
same,"Lipoperoxides T/C, 24h",[14]; 24h,22%
same,"Lipoperoxides, 24 h","[14]; 24 h, CCl4-induced hepatic damage",0.58 ± 0.58 mmol MDA/g liver protein
same,Frequency of p53 allelic loss,[15]; [17],12%
same,Inhibition T/C (p53 allelic loss),[15]; [18],36%
same,Aminopyrine demethylase,[16],170.0 ± 18 nmol HCHO/mg protein
